Experimental data reported in patent publication US12577226B2, “Compounds for treating Huntington's disease” (PTC THERAPEUTICS, INC., priority 2019, dated 2026).

Each compound was assayed on Endogenous Huntingtin Protein (capture with MW1 (expanded polyglutamine) or MAB2166 antibody) (assay: Endogenous Huntingtin Protein Assay (ELISA-based Meso Scale Discovery electrochemiluminescence assay)). Conditions: MSD electrochemiluminescence platform.
Assay type: cell-based
Method in brief: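 MSD electrochemiluminescence sandwich immunoassay: plates coated with 1 μg/mL MW1 or MAB2166 capture antibody, samples incubated overnight at 4 °C. Detection with rabbit monoclonal #5656S then SULFO-TAG anti-rabbit (each 0.25 μg/mL, 1 h RT).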

Row | IC50 | Compound
1 | 100 to 500 nM | CC1(C)CC(Oc2ccc(-c3ncc(-n4ccnn4)cc3O)nn2)CC(C)(C)N1 [Compound 63, 2-{6-[(2,2,6,6-tetramethylpiperidin-4-yl)oxy]pyridazin-3-yl}-5-(1H-1,2,3-triazol-1-yl)pyridin-3-ol]
2 | ≤ 100 nM | CC1(C)CC(Oc2ccc(-c3ncc(-c4ccc5nccn5n4)cc3O)nn2)CC(C)(C)N1 [Compound 65, 5-(imidazo[1,2-b]pyridazin-6-yl)-2-{6-[(2,2,6,6-tetramethylpiperidin-4-yl)oxy]pyridazin-3-yl}pyridin-3-ol]
3 | ≤ 100 nM | COc1cc(-c2cnc(-c3ccc(OC4CC(C)(C)NC(C)(C)C4)nn3)c(O)c2)ncn1 [Compound 74, 5-(6-methoxypyrimidin-4-yl)-2-{6-[(2,2,6,6-tetramethylpiperidin-4-yl)oxy]pyridazin-3-yl}pyridin-3-ol]
4 | ≤ 100 nM | [2H]C([2H])([2H])n1cc(-c2cnc(-c3ccc(OC4CC(C)(C)NC5(CC5)C4)nn3)c(O)c2)cn1 (stereo not drawn) [Compound 75, 2-{6-[(5,5-dimethyl-4-azaspiro[2.5]octan-7-yl)oxy]pyridazin-3-yl}-5-[1-(^2H3)methyl-1H-pyrazol-4-yl]pyridin-3-ol]
5 | ≤ 100 nM | Cc1ncc(-c2cnc(-c3ccc(N4CC[C@@H](NC(C)(C)C)C4)nn3)c(O)c2)o1 [Compound 76, 2-{6-[(3R)-3-(tert-butylamino)pyrrolidin-1-yl]pyridazin-3-yl}-5-(2-methyl-1,3-oxazol-5-yl)pyridin-3-ol]
6 | ≤ 100 nM | CN[C@@H]1CCN(c2ccc(-c3ncc(-c4cnc(C)o4)cc3O)nn2)C1 [Compound 77, 2-{6-[(3R)-3-(methylamino)pyrrolidin-1-yl]pyridazin-3-yl}-5-(2-methyl-1,3-oxazol-5-yl)pyridin-3-ol]
7 | ≤ 100 nM | CC1(C)CC(Oc2ccc(-c3ncc(-c4nccs4)cc3O)nn2)CC2(CC2)N1 (stereo not drawn) [Compound 79, 2-{6-[(5,5-dimethyl-4-azaspiro[2.5]octan-7-yl)oxy]pyridazin-3-yl}-5-(1,3-thiazol-2-yl)pyridin-3-ol]
8 | 100 to 500 nM | CN[C@@H]1CCN(c2ccc(-c3ncc(-c4ncco4)cc3O)nn2)C1 [Compound 80, 2-{6-[(3R)-3-(methylamino)pyrrolidin-1-yl]pyridazin-3-yl}-5-(1,3-oxazol-2-yl)pyridin-3-ol]
9 | ≤ 100 nM | [2H]C([2H])([2H])n1cc(-c2cnc(-c3ccc(O[C@H]4C[C@@H](C)NC5(CC5)C4)nn3)c(O)c2)cn1 [Compound 82, 2-(6-{[(5R,7S)-5-methyl-4-azaspiro[2.5]octan-7-yl]oxy}pyridazin-3-yl)-5-[1-(^2H3)methyl-1H-pyrazol-4-yl]pyridin-3-ol]
10 | 100 to 500 nM | [2H]C([2H])([2H])n1cc(-c2cnc(-c3ccc(O[C@@H]4C[C@H](C)NC5(CC5)C4)nn3)c(O)c2)cn1 [Compound 83, 2-(6-{[(5S,7R)-5-methyl-4-azaspiro[2.5]octan-7-yl]oxy}pyridazin-3-yl)-5-[1-(^2H3)methyl-1H-pyrazol-4-yl]pyridin-3-ol]
11 | 100 to 500 nM | CC1(C)CN(c2ccc(-c3ncc(-c4cn[nH]c4)cc3O)nn2)CC(C)(C)N1 [Compound 88, 5-(1H-pyrazol-4-yl)-2-[6-(3,3,5,5-tetramethylpiperazin-1-yl)pyridazin-3-yl]pyridin-3-ol]
12 | ≤ 100 nM | Cn1cc2cc(-c3cnc(-c4ccc(N5CC(C)(C)NC(C)(C)C5)nn4)c(O)c3)cc(F)c2n1 [Compound 89, 5-(7-fluoro-2-methyl-2H-indazol-5-yl)-2-[6-(3,3,5,5-tetramethylpiperazin-1-yl)pyridazin-3-yl]pyridin-3-ol]
13 | ≤ 100 nM | Cn1cc2cc(-c3cnc(-c4ccc(N5CCNCC5)nn4)c(O)c3)cc(F)c2n1 [Compound 93, 5-(7-fluoro-2-methyl-2H-indazol-5-yl)-2-[6-(piperazin-1-yl)pyridazin-3-yl]pyridin-3-ol]
14 | ≤ 100 nM | COc1cc(-c2cnc(-c3ccc(N4CCNC(C)C4)nn3)c(O)c2)cc2cn(C)nc12 (stereo not drawn) [Compound 95, 5-(7-methoxy-2-methyl-2H-indazol-5-yl)-2-[6-(3-methylpiperazin-1-yl)pyridazin-3-yl]pyridin-3-ol]

The remaining lines, values behind:

Row | Compound | IC50
15 | Cn1cc2cc(-c3cnc(-c4ccc(OC5CC(C)(C)NC(C)(C)C5)nn4)c(O)c3)cc(F)c2n1 [Compound 52, 5-(7-fluoro-2-methyl-2H-indazol-5-yl)-2-{6-[(2,2,6,6-tetramethylpiperidin-4-yl)oxy]pyridazin-3-yl}pyridin-3-ol] | ≤ 100 nM
16 | [2H]C([2H])([2H])n1cc(-c2cnc(-c3ccc(N(C)C4CC(C)(C)NC5(CC5)C4)nn3)c(O)c2)cn1 (stereo not drawn) [Compound 53, 2-{6-[(5,5-dimethyl-4-azaspiro[2.5]octan-7-yl)(methyl)amino]pyridazin-3-yl}-5-[1-(^2H3)methyl-1H-pyrazol-4-yl]pyridin-3-ol] | ≤ 100 nM
17 | CC1(C)CC(Oc2ccc(-c3ncc(-n4cncn4)cc3O)nn2)CC(C)(C)N1 [Compound 61, 2-{6-[(2,2,6,6-tetramethylpiperidin-4-yl)oxy]pyridazin-3-yl}-5-(1H-1,2,4-triazol-1-yl)pyridin-3-ol] | ≤ 100 nM
18 | Cn1cc2cc(-c3cnc(-c4ccc(OC5CC(C)(C)NC(C)(C)C5)nn4)c(O)c3)cc(C#N)c2n1 [Compound 62, 5-[6-(6-{[2,2,6,6-tetramethylpiperidin-4-yl]oxy}pyridazin-3-yl)-5-hydroxypyridin-3-yl]-2-methyl-2H-indazole-7-carbonitrile] | ≤ 100 nM
19 | CN(c1ccc(-c2ncc(-c3cc(F)c4nn(C)cc4c3)cc2O)nn1)C1CC(C)(C)NC2(CC2)C1 (stereo not drawn) [Compound 64, 2-{6-[(5,5-dimethyl-4-azaspiro[2.5]octan-7-yl)(methyl)amino]pyridazin-3-yl}-5-(7-fluoro-2-methyl-2H-indazol-5-yl)pyridin-3-ol] | ≤ 100 nM
20 | C[C@@H]1CN(c2ccc(-c3ncc(-c4cc(F)c5nn(C)cc5c4)cc3O)nn2)C[C@H](C)N1 [Compound 69, 2-{6-[(3R,5S)-3,5-dimethylpiperazin-1-yl]pyridazin-3-yl}-5-(7-fluoro-2-methyl-2H-indazol-5-yl)pyridin-3-ol and 2-{6-[(3S,5R)-3,5-dimethylpiperazin-1-yl]pyridazin-3-yl}-5-(7-fluoro-2-methyl-2H-indazol-5-yl)pyridin-3-ol] | ≤ 100 nM
21 | CN[C@@H]1CCN(c2ccc(-c3ncc(-c4cc(OC)ncn4)cc3O)nn2)C1 [Compound 70, 5-(6-methoxypyrimidin-4-yl)-2-{6-[(3R)-3-(methylamino)pyrrolidin-1-yl]pyridazin-3-yl}pyridin-3-ol] | ≤ 100 nM
22 | Oc1cc(-n2nccn2)cnc1-c1ccc(OC2CC3(CC3)NC3(CC3)C2)nn1 (stereo not drawn) [Compound 73, 2-{6-[(4-azadispiro[2.1.2^5.3^3]decan-9-yl)oxy]pyridazin-3-yl}-5-(2H-1,2,3-triazol-2-yl)pyridin-3-ol] | 100 to 500 nM
23 | C[C@@H]1CN(c2ccc(-c3ncc(-c4cc(C#N)c5nn(C)cc5c4)cc3O)nn2)C[C@H](C)N1 [Compound 78, 5-(6-{6-[(3R,5S)-3,5-dimethylpiperazin-1-yl]pyridazin-3-yl}-5-hydroxypyridin-3-yl)-2-methyl-2H-indazole-7-carbonitrile and 5-(6-{6-[(3S,5R)-3,5-dimethylpiperazin-1-yl]pyridazin-3-yl}-5-hydroxypyridin-3-yl)-2-methyl-2H-indazole-7-carbonitrile] | ≤ 100 nM
24 | COc1cc(-c2cnc(-c3ccc(OC4CC(C)(C)NC(C)(C)C4)nn3)c(O)c2)nn2cc(C)nc12 [Compound 81, 5-(8-methoxy-2-methylimidazo[1,2-b]pyridazin-6-yl)-2-{6-[(2,2,6,6-tetramethylpiperidin-4-yl)oxy]pyridazin-3-yl}pyridin-3-ol] | ≤ 100 nM
25 | [2H]C([2H])([2H])n1cc(-c2cnc(-c3ccc(O[C@H]4C[C@H](C)NC5(CC5)C4)nn3)c(O)c2)cn1 [Compound 84, 2-(6-{[(5S,7S)-5-methyl-4-azaspiro[2.5]octan-7-yl]oxy}pyridazin-3-yl)-5-[1-(^2H3)methyl-1H-pyrazol-4-yl]pyridin-3-ol] | 500 to 1000 nM
26 | [2H]C([2H])([2H])n1cc(-c2cnc(-c3ccc(O[C@@H]4C[C@@H](C)NC5(CC5)C4)nn3)c(O)c2)cn1 [Compound 85, 2-(6-{[(5R,7R)-5-methyl-4-azaspiro[2.5]octan-7-yl]oxy}pyridazin-3-yl)-5-[1-(^2H3)methyl-1H-pyrazol-4-yl]pyridin-3-ol] | 500 to 1000 nM
27 | C[C@@H]1CN(c2ccc(-c3ncc(-c4cn[nH]c4)cc3O)nn2)C[C@H](C)N1 [Compound 86, 2-{6-[(3R,5S)-3,5-dimethylpiperazin-1-yl]pyridazin-3-yl}-5-(1H-pyrazol-4-yl)pyridin-3-ol and 2-{6-[(3S,5R)-3,5-dimethylpiperazin-1-yl]pyridazin-3-yl}-5-(1H-pyrazol-4-yl)pyridin-3-ol] | 100 to 500 nM
28 | COc1cc(-c2cnc(-c3ccc(N4C[C@@H](C)N[C@@H](C)C4)nn3)c(O)c2)cc2cn(C)nc12 [Compound 87, 2-{6-[(3R,5S)-3,5-dimethylpiperazin-1-yl]pyridazin-3-yl}-5-(7-methoxy-2-methyl-2H-indazol-5-yl)pyridin-3-ol and 2-{6-[(3S,5R)-3,5-dimethylpiperazin-1-yl]pyridazin-3-yl}-5-(7-methoxy-2-methyl-2H-indazol-5-yl)pyridin-3-ol] | ≤ 100 nM
29 | Cc1cn2cc(-c3cnc(-c4ccc(N5C[C@@H](C)N[C@@H](C)C5)nn4)c(O)c3)ccc2n1 [Compound 92, 2-{6-[(3R,5S)-3,5-dimethylpiperazin-1-yl]pyridazin-3-yl}-5-(2-methylimidazo[1,2-a]pyridin-6-yl)pyridin-3-ol and 2-{6-[(3S,5R)-3,5-dimethylpiperazin-1-yl]pyridazin-3-yl}-5-(2-methylimidazo[1,2-a]pyridin-6-yl)pyridin-3-ol] | ≤ 100 nM
30 | C[C@@H]1CN(c2ccc(-c3ncc(-c4ccc5ncnn5c4)cc3O)nn2)C[C@H](C)N1 [Compound 94, 2-{6-[(3R,5S)-3,5-dimethylpiperazin-1-yl]pyridazin-3-yl}-5-([1,2,4]triazolo[1,5-a]pyridin-6-yl)pyridin-3-ol and 2-{6-[(3S,5R)-3,5-dimethylpiperazin-1-yl]pyridazin-3-yl}-5-([1,2,4]triazolo[1,5-a]pyridin-6-yl)pyridin-3-ol] | 500 to 1000 nM
